Holding throughout (format): cell-based
One assay addresses T1, BRAF V600E (Homo sapiens, UniProt P15056, V600E).
T1 construct: endogenous C-terminal HiBiT fusion tag on BRAF V600E allele; endogenous in cells; host or cells: A375 clone 1F10 (CRISPR-Cas9 knock-in of the HiBiT tag; parental A375 from ATCC)
In words: BRAF HiBiT degradation assay, C-terminal HiBiT-tagged BRAF V600E A375 cells (clone 1F10), Nano-Glo HiBiT Lytic assay. The conditions noted are these: for Dmax: A-375. In short, it runs like this:
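Luminescence read-out: Nano-Glo HiBiT lytic reagent with LgBiT, 10 min at room temperature. Signal normalised to DMSO-treated tagged cells, with wildtype A375 as background. Cells are endogenously tagged BRAF V600E A375 clone 1F10. Compounds were tested from 1 μM to 0.01 nM; Dmax is observed % degraded at maximal effect.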
On the technique in general: With HiBiT, luminescence reflects the tagged protein that the partner subunit can reach.

The target in another assay is T2, BRAF G466V (Homo sapiens, UniProt P15056, G466V).
T2 construct: Horizon Discovery (HCT-116 BRAF−/− cells); host or cells: HCT-116 BRAF−/− cells, clone 8, lentiviral transduction
T2 sequence (P15056 whole entry G466V): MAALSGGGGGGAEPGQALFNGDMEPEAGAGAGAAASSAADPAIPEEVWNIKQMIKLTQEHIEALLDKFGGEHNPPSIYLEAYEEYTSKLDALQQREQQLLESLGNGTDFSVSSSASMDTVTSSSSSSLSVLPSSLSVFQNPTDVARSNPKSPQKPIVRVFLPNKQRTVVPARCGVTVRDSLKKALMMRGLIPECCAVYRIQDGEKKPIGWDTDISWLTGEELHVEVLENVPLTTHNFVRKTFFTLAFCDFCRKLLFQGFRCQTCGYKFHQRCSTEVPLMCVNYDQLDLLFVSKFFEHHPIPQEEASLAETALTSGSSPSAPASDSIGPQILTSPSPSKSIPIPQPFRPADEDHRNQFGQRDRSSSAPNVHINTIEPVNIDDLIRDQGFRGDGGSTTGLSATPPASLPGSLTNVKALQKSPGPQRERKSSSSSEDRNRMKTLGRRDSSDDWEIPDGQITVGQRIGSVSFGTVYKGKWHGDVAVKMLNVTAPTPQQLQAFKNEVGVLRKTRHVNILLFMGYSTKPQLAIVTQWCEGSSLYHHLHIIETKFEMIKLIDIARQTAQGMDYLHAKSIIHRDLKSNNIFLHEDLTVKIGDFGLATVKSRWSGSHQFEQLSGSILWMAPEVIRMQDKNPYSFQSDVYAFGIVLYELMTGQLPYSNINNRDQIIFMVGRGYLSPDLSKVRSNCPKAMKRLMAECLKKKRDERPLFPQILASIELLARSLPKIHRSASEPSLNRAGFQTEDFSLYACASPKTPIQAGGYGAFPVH
Nature of the assay: BRAF HiBiT degradation assay, C-terminal HiBiT-tagged BRAF G466V overexpressed in HCT-116 BRAF−/− cells (clone 8), Nano-Glo HiBiT Lytic assay. Summed up:
(§1)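 Cells 3,000/well, 24 h at 37 °C; cpds 1 μM–0.01 nM, 11-pt half-log, duplicate, 0.2% DMSO. Readout: HiBiT lytic luminescence, 10 min at RT. Normalized to DMSO-treated tagged cells, with DMSO-treated wild-type HCT-116 as background. DC50 = fitted concentration at Y=50; Obs. Dmax = % degraded at maximal effect.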

A further assay concerns the target T3, BRAF G469A (Homo sapiens, UniProt P15056, G469A).
T3 construct: Horizon Discovery (HCT-116 BRAF−/− cells); host or cells: HCT-116 BRAF−/− cells, clone 34, lentiviral transduction
Nature of the assay: BRAF HiBiT degradation assay, C-terminal HiBiT-tagged BRAF G469A overexpressed in HCT-116 BRAF−/− cells (clone 34), Nano-Glo HiBiT Lytic assay. In short, it runs like this:
as §1

The target of another assay is T4, BRAF D594G (Homo sapiens, UniProt P15056, D594G).
T4 construct: Horizon Discovery (HCT-116 BRAF−/− cells); host or cells: HCT-116 BRAF−/− cells, clone 63, lentiviral transduction
T4 sequence (P15056 whole entry D594G): as the sequence (P15056 whole entry G466V) above, with V466G, D594G counted along it
In words: BRAF HiBiT degradation assay, C-terminal HiBiT-tagged BRAF D594G overexpressed in HCT-116 BRAF−/− cells (clone 63), Nano-Glo HiBiT Lytic assay. Summed up: as §1

Setting [1] is: A375 (BRAF V600E), DC50 at 50%: fitted conc. at Y=50.
Where [2] appears, read: A375 (BRAF V600E), percentage protein degraded at maximal compound effect relative to DMSO.
Setting [3] is: BRAF G466V, DC50 at 50%: fitted conc. at Y=50.
[4] abbreviates: HCT-116, BRAF G466V, percentage protein degraded at maximal compound effect relative to DMSO.
The mark [5] stands for this setting: Class 2, BRAF G469A, DC50 at 50%: fitted conc. at Y=50.
Where [6] appears, read: HCT-116, Class 2, BRAF G469A, percentage protein degraded at maximal compound effect relative to DMSO.
[7] abbreviates: BRAF D594G, DC50 at 50%: fitted conc. at Y=50.
[8] abbreviates: HCT-116, BRAF D594G, percentage protein degraded at maximal compound effect relative to DMSO.

A value given as a limit tells only on which side of the number the result lay.

T1 sequence (P15056 whole entry V600E, the tested form may be a part): as the sequence (P15056 whole entry G466V) above, with V466G, V600E counted along it
T3 sequence (P15056 whole entry G469A): as the sequence (P15056 whole entry G466V) above, with V466G, G469A counted along it

In the case of `CCCS(=O)(=O)Nc1cccc(-c2nc(C(C)(C)C)sc2-c2ccnc(Nc3cnn(CC4CCN(C(=O)C[C@H]5CCN(c6ccc(C7CCC(=O)NC7=O)cc6)C5)CC4)c3)n2)c1F` (mixture of isomers) [Compound 111, N-(3-{2-tert-butyl-5-[2-({1-[(1-{2-[(3R)-1-{4-[(3RS)-2,6-dioxopiperidin-3-yl]phenyl}pyrrolidin-3-yl]acetyl}piperidin-4-yl)methyl]-1H-pyrazol-4-yl}amino)pyrimidin-4-yl]-1,3-thiazol-4-yl}-2-fluorophenyl)propane-1-sulfonamide], the DC50 at BRAF V600E (setting [1]) is below 0.01 µM; on BRAF G466V (setting [3]), 0.05 to 0.5 µM; on BRAF G469A (setting [5]), 0.05 to 0.5 µM; on BRAF D594G (setting [7]) it was 0.05 to 0.5 µM. For the same compound, the Dmax at BRAF V600E (setting [2]) is 30 to 70%; on BRAF G466V (setting [4]), below 30%; on BRAF G469A (setting [6]) it was below 30%; at BRAF D594G (setting [8]), 30 to 70%.
In the case of `CCCS(=O)(=O)Nc1cccc(-c2nc(C(C)(C)C)sc2-c2ccnc(Nc3cnn(C4CCN(CC[C@H]5CCN(c6ccc(C7CCC(=O)NC7=O)cn6)C5)CC4)c3)n2)c1F` (mixture of isomers) [Compound 77, N-{3-[2-tert-butyl-5-(2-{[1-(1-{2-[(3S)-1-{5-[(3RS)-2,6-dioxopiperidin-3-yl]pyridin-2-yl}pyrrolidin-3-yl]ethyl}piperidin-4-yl)-1H-pyrazol-4-yl]amino}pyrimidin-4-yl)-1,3-thiazol-4-yl]-2-fluorophenyl}propane-1-sulfonamide], the DC50 on BRAF V600E (setting [1]) was 0.01 to 0.05 µM; at BRAF G466V (setting [3]), above 0.5 µM; at BRAF G469A (setting [5]), above 0.5 µM; at BRAF D594G (setting [7]) it was above 0.5 µM. Further, the Dmax on BRAF V600E (setting [2]) is 30 to 70%; at BRAF G466V (setting [4]), below 30%; at BRAF G469A (setting [6]) it was below 30%; at BRAF D594G (setting [8]), 30 to 70%.
Turning to `CCCS(=O)(=O)Nc1cccc(-c2nc(C(C)(C)C)sc2-c2ccnc(Nc3ccc(C4CCN(C(=O)C[C@H]5CCN(c6ccc(C7CCC(=O)NC7=O)cc6)C5)CC4)cc3)n2)c1F` (mixture of isomers) [Compound 165, N-{3-[2-tert-butyl-5-(2-{[4-(1-{2-[(3R)-1-{4-[(3RS)-2,6-dioxopiperidin-3-yl]phenyl}pyrrolidin-3-yl]acetyl}piperidin-4-yl)phenyl]amino}pyrimidin-4-yl)-1,3-thiazol-4-yl]-2-fluorophenyl}propane-1-sulfonamide], the DC50 on BRAF V600E (setting [1]) was 0.01 to 0.05 µM; at BRAF G466V (setting [3]), above 0.5 µM; on BRAF G469A (setting [5]), above 0.5 µM; at BRAF D594G (setting [7]), above 0.5 µM. The Dmax at BRAF V600E (setting [2]) is 30 to 70%; at BRAF G466V (setting [4]), below 30%; at BRAF G469A (setting [6]) it was below 30%; on BRAF D594G (setting [8]), below 30%.
For the compound `O=C1CCN(c2ccc(N3CCC(CN4CCN(c5ccc(-n6cc(-c7cc(Cl)cc(NS(=O)(=O)N8CC(F)C8)c7F)c(-c7ccncc7)n6)c(F)c5)CC4)CC3)nc2)C(=O)N1` [Compound 369, N-[5-chloro-3-(1-{4-[4-({1-[5-(2,4-dioxo-1,3-diazinan-1-yl)pyridin-2-yl]piperidin-4-yl}methyl)piperazin-1-yl]-2-fluorophenyl}-3-(pyridin-4-yl)-1H-pyrazol-4-yl)-2-fluorophenyl]-3-fluoroazetidine-1-sulfonamide], the DC50 is below 0.01 µM at BRAF V600E (A375 (BRAF V600E, Class 1), DC50 at 50% degradation); 0.01 to 0.05 µM at BRAF G466V (BRAF G466V (Class 3), HCT-116 BRAF−/− cells, DC50 at 50% degradation); below 0.01 µM on BRAF G469A (BRAF G469A (Class 2), HCT-116 BRAF−/− cells, DC50 at 50% degradation); below 0.01 µM on BRAF D594G (BRAF D594G (Class 3), HCT-116 BRAF−/− cells, DC50 at 50% degradation). In addition, the Dmax on BRAF V600E (A375 (BRAF V600E, Class 1), observed Dmax, % protein degraded relative to DMSO control) is above 70%; on BRAF G466V (BRAF G466V (Class 3), HCT-116 BRAF−/− cells, observed Dmax relative to DMSO control), 30 to 70%; on BRAF G469A (BRAF G469A (Class 2), HCT-116 BRAF−/− cells, observed Dmax relative to DMSO control), 30 to 70%; on BRAF D594G (BRAF D594G (Class 3), HCT-116 BRAF−/− cells, observed Dmax relative to DMSO control), 30 to 70%.

As usually defined, the DC50 is the midpoint of the concentration-degradation curve. A lower DC50 goes with degradation at low concentration. A word on the Dmax: it is the largest share of the target that was removed. Read a high Dmax as a fuller loss of target.

(Values after patent US20260317324A1, “BIFUNCTIONAL COMPOUNDS FOR DEGRADING BRAF VIA UBIQUITIN PROTEOSOME PATHWAY” (Nurix Therapeutics, Inc., priority 2023, published 2026).)
